Laboratory results published in US12522594B2, “2-heteroaryl-3-oxo-2,3-dihydropyridazine-4-carboxamides for the treatment of cancer” (Deutsches Krebsforschungszentrum, priority 2017, dated 2026).

Legend:
Assay type in all cases: cell-based
AHR [1] = target: T1, AHR (Homo sapiens, UniProt P35869); experiment: In vitro assay 3: AHR-regulated CYP1A1 expression in human cell line (U937, qPCR, KA stimulation); details: U937 cells, 200 uM KA, 6 hours, CYP1A1 expression by qPCR; read-out: Assay 3: Hum CYP1A1 Antagonism IC50
T1 sequence (P35869 11-848): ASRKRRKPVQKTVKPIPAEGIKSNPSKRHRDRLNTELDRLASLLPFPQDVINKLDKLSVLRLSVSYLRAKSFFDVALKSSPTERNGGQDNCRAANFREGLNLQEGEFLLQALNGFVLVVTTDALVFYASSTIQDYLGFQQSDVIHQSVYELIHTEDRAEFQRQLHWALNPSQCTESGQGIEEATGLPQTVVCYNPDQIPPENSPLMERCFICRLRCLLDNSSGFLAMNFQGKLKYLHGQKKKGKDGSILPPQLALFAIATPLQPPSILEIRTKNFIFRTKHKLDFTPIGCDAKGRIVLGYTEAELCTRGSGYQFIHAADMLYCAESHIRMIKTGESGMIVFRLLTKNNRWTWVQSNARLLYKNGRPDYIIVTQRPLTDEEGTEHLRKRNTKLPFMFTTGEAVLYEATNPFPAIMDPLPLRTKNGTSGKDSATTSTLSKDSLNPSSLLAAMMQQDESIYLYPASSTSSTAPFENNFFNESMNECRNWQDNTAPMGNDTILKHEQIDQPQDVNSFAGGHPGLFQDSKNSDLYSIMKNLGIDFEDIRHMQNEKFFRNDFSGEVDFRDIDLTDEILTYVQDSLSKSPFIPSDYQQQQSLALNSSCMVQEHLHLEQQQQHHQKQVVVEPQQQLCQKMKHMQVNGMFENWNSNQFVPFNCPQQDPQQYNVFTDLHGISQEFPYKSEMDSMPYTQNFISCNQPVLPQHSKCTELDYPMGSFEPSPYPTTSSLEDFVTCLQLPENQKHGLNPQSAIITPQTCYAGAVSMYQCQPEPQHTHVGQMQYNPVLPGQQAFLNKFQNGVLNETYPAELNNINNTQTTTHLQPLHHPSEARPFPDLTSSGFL
Description: In Vitro Assay 3: AHR-Regulated CYP1A1 Expression in Human Cell Line
To assess the AHR inhibitory activity of the substances described in this application, the ability thereof to antagonise ligand-induced AHR gene regulation in a dose-dependent manner was quantified. For this purpose, quantitative PCR analysis was used to determine expression of the AHR-regulated gene CYP1A1 in a human monocytic U937 cell line upon stimulation with 200 uM KA in the presence and absence of AHR inhibitor. […] CYP1A1 expression was induced with 200 uM KA (positive control) in the presence or absence of the substances for 6 hours. Human U937 cells were typically incubated with eight different concentrations of the substances (1 nM, 3 nM, 10 nM, 30 nM, 100 nM, 300 nM, 1 uM and 3 uM) and analyzed in duplicate on the same microtitre plate. […] Unstimulated cells were used as the negative control. Taqman probes for human CYP1A1 (Hs01054797_g1) and human HPRT (Hs02800695_m1) were used to analyze fold expression of CYP1A1 of HPRT. Quantitation was performed on a Taqman SDS7900HT.

AHR [2] = target: T1, AHR; experiment: In vitro assay 1: antagonism in human cell line (transactivation assay, U87 cells prestimulated with kynurenic acid, DRE firefly luciferase reporter); set-up: host or cells: U87 glioblastoma cells, stably transfected with DRE firefly luciferase and renilla reporter constructs; details: 150 uM kynurenic acid, 20 hours, read-out: Assay 1: AHR-luc Hum Antagonism IC50
In short: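 U87 glioblastoma cells with endogenous AHR, stably carrying a DRE-driven firefly luciferase reporter and a constitutive renilla reporter. Cells prestimulated with the AHR agonist kynurenic acid before compound addition; data normalized to positive and negative controls.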

AHR [3] = target: T1, AHR; experiment: In vitro assay 2: agonism in human cell line (transactivation assay, U87 cells, DRE firefly luciferase reporter); set-up: host or cells: U87 glioblastoma cells, stably transfected with DRE firefly luciferase and renilla reporter constructs; details: no kynurenic acid, 20 hours, read-out: Assay 2: AHR-luc Hum Agonism IC50
In short: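 U87 glioblastoma cells with endogenous AHR, stably carrying DRE-driven firefly luciferase and constitutive renilla reporters. 300 uM kynurenic acid served as positive activation control; data normalized to positive and negative controls.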

Row | SMILES | IC50 (AHR [1]) [nM] | IC50 (AHR [2]) [nM] | IC50 (AHR [3]) [nM]
1 | O=C(NC(CO)C(F)(F)F)c1cc(-c2ccc(Cl)cc2)nn(-c2cccnc2)c1=O (racemic) [Example 76, 6-(4-Chlorophenyl)-3-oxo-2-(pyridin-3-yl)-N-[(2RS)-1,1,1-trifluoro-3-hydroxypropan-2-yl]-2,3-dihydropyridazine-4-carboxamide] | 13.8 | 11.9 | > 20000
2 | C[C@H](NC(=O)c1cc(-c2ccc(Cl)cc2)nn(-c2cnn(C)c2)c1=O)C(C)(C)O [Example 316, 6-(4-Chlorophenyl)-N-[(2S)-3-hydroxy-3-methylbutan-2-yl]-2-(1-methyl-1H-pyrazol-4-yl)-3-oxo-2,3-dihydropyridazine-4-carboxamide] |  | 20.6 | > 20000
3 | O=C(NC[C@H](O)C(F)(F)F)c1cc(-c2ccc(Cl)cc2)nn(-c2ccnnc2)c1=O [Example 321, 3-(4-Chlorophenyl)-6-oxo-N-[(2S)-3,3,3-trifluoro-2-hydroxypropyl]-6H-1,4′-bipyridazine-5-carboxamide] |  | 50.6 | > 20000
4 | CC(C)[C@@H](CO)NC(=O)c1cc(-c2ccc(C(F)(F)F)nc2)nn(-c2cncc(F)c2)c1=O [Example 337, 2-(5-Fluoropyridin-3-yl)-N-[(2S)-1-hydroxy-3-methylbutan-2-yl]-3-oxo-6-[6-(trifluoromethyl)pyridin-3-yl]-2,3-dihydropyridazine-4-carboxamide] |  | 20.8 | > 20000
5 | O=C(N[C@H]1CCC[C@H]1O)c1cc(-c2ccc(C(F)(F)F)nc2)nn(-c2cncc(F)c2)c1=O [Example 338, 2-(5-Fluoropyridin-3-yl)-N-[(1S,2R)-2-hydroxycyclopentyl]-3-oxo-6-[6-(trifluoromethyl)pyridin-3-yl]-2,3-dihydropyridazine-4-carboxamide] |  | 24.1 | > 20000
6 | O=C(N[C@H](CO)C1CC1)c1cc(-c2ccc(C(F)(F)F)nc2)nn(-c2cncc(F)c2)c1=O [Example 339, N-[(1S)-1-Cyclopropyl-2-hydroxyethyl]-2-(5-fluoropyridin-3-yl)-3-oxo-6-[6-(trifluoromethyl)pyridin-3-yl]-2,3-dihydropyridazine-4-carboxamide] |  | 27.6 | > 20000
7 | C[C@H](NC(=O)c1cc(-c2ccc(C(F)(F)F)nc2)nn(-c2cncc(F)c2)c1=O)C(C)(C)O [Example 340, 2-(5-Fluoropyridin-3-yl)-N-[(2S)-3-hydroxy-3-methylbutan-2-yl]-3-oxo-6-[6-(trifluoromethyl)pyridin-3-yl]-2,3-dihydropyridazine-4-carboxamide] |  | 49.7 | > 20000
8 | N#C[C@@H](CO)NC(=O)c1cc(-c2ccc(C(F)(F)F)nc2)nn(-c2cncc(F)c2)c1=O [Example 341, N-[(1S)-1-Cyano-2-hydroxyethyl]-2-(5-fluoropyridin-3-yl)-3-oxo-6-[6-(trifluoromethyl)pyridin-3-yl]-2,3-dihydropyridazine-4-carboxamide] |  | 102 | > 20000
9 | C[C@@H](NC(=O)c1cc(-c2ccc(C(F)(F)F)nc2)nn(-c2cncc(F)c2)c1=O)C(C)(C)O [Example 342, 2-(5-Fluoropyridin-3-yl)-N-[(2R)-3-hydroxy-3-methylbutan-2-yl]-3-oxo-6-[6-(trifluoromethyl)pyridin-3-yl]-2,3-dihydropyridazine-4-carboxamide] |  | 132 | > 20000
10 | O=C(N[C@H]1COCC[C@H]1O)c1cc(-c2ccc(C(F)(F)F)nc2)nn(-c2cncc(F)c2)c1=O [Example 343, 1,5-Anhydro-2,4-dideoxy-2-[({2-(5-fluoropyridin-3-yl)-3-oxo-6-[6-(trifluoromethyl)pyridin-3-yl]-2,3-dihydropyridazine-4-yl}carbonyl)amino]-D-erythro-pentitol] |  | 171 | > 20000
11 | CC(C)(O)CNC(=O)c1cc(-c2ccc(C(F)(F)F)nc2)nn(-c2cncc(F)c2)c1=O [Example 344, 2-(5-Fluoropyridin-3-yl)-N-(2-hydroxy-2-methylpropyl)-3-oxo-6-[6-(trifluoromethyl)pyridin-3-yl]-2,3-dihydropyridazine-4-carboxamide] |  | 174 | > 20000
12 | C[C@@H](CO)NC(=O)c1cc(-c2ccc(C(F)(F)F)cn2)nn(-c2cccnc2)c1=O [Example 345, N-[(2S)-1-Hydroxypropan-2-yl]-3-oxo-2-(pyridin-3-yl)-6-[5-(trifluoromethyl)pyridin-2-yl]-2,3-dihydropyridazine-4-carboxamide] |  | 55.3 | > 20000

The next lines start with the values.

Row | IC50 (AHR [1]) [nM] | IC50 (AHR [2]) [nM] | IC50 (AHR [3]) [nM] | SMILES
13 |  | 1.85 | > 20000 | C[C@H](NC(=O)c1cc(-c2ccc(OC(F)(F)F)cc2)nn(-c2cnsc2)c1=O)C(C)(C)O [Example 312, N-[(2S)-3-Hydroxy-3-methylbutan-2-yl]-3-oxo-2-(1,2-thiazol-4-yl)-6-[4-(trifluoromethoxy)phenyl]-2,3-dihydropyridazine-4-carboxamide]
14 |  | 242 | > 20000 | C[C@@H](NC(=O)c1cc(-c2ccc(Cl)cc2)nn(-c2cn[nH]c2)c1=O)C(C)(C)O [Example 325, 6-(4-Chlorophenyl)-N-[(2R)-3-hydroxy-3-methylbutan-2-yl]-3-oxo-2-(1H-pyrazol-4-yl)-2,3-dihydropyridazine-4-carboxamide]
15 |  | 0.504 | > 20000 | C[C@@H](NC(=O)c1cc(-c2ccc(Cl)cc2)nn(-c2cnsc2)c1=O)C(C)(C)O [Example 326, 6-(4-Chlorophenyl)-N-[(2R)-3-hydroxy-3-methylbutan-2-yl]-3-oxo-2-(1,2-thiazol-4-yl)-2,3-dihydropyridazine-4-carboxamide]
16 |  | 2.58 | > 20000 | C[C@@H](NC(=O)c1cc(-c2ccc(OC(F)(F)F)cc2)nn(-c2cnsc2)c1=O)C(C)(C)O [Example 327, N-[(2R)-3-Hydroxy-3-methylbutan-2-yl]-3-oxo-2-(1,2-thiazol-4-yl)-6-[4-(trifluoromethoxy)phenyl]-2,3-dihydropyridazine-4-carboxamide]
17 |  | 234 | > 20000 | CC(C)(O)CNC(=O)c1cc(-c2ccc(OC(F)F)cc2)nn(-c2cccnc2)c1=O [Example 331, 6-[4-(Difluoromethoxy)phenyl]-N-(2-hydroxy-2-methylpropyl)-3-oxo-2-(pyridin-3-yl)-2,3-dihydropyridazine-4-carboxamide]
18 |  | 94.5 | > 20000 | C[C@@H](CO)NC(=O)c1cc(-c2ccc(OC(F)F)cc2)nn(-c2cccnc2)c1=O [Example 332, 6-[4-(Difluoromethoxy)phenyl]-N-[(2S)-1-hydroxypropan-2-yl]-3-oxo-2-(pyridin-3-yl)-2,3-dihydropyridazine-4-carboxamide]
19 |  | 74.9 | > 20000 | C[C@H](NC(=O)c1cc(-c2ccc(OC(F)F)cc2)nn(-c2cccnc2)c1=O)C(C)(C)O [Example 333, 6-[4-(Difluoromethoxy)phenyl]-N-[(2S)-3-hydroxy-3-methylbutan-2-yl]-3-oxo-2-(pyridin-3-yl)-2,3-dihydropyridazine-4-carboxamide]
20 |  | 60.2 | > 20000 | C[C@H](O)[C@H](C)NC(=O)c1cc(-c2ccc(OC(F)F)cc2)nn(-c2cccnc2)c1=O [Example 334, 6-[4-(Difluoromethoxy)phenyl]-N-[(2S,3S)-3-hydroxybutan-2-yl]-3-oxo-2-(pyridin-3-yl)-2,3-dihydropyridazine-4-carboxamide]
